Test results as given in US20260144788A1, “COMPOUND FOR SHP2 PROTEIN DEGRADATION AND MEDICAL USES THEREOF” (UBIX THERAPEUTICS, INC., priority 2022, published 2026).

Molecular target: T1, SHP2 protein (Homo sapiens, UniProt Q06124)
T1 sequence (Q06124 1-593): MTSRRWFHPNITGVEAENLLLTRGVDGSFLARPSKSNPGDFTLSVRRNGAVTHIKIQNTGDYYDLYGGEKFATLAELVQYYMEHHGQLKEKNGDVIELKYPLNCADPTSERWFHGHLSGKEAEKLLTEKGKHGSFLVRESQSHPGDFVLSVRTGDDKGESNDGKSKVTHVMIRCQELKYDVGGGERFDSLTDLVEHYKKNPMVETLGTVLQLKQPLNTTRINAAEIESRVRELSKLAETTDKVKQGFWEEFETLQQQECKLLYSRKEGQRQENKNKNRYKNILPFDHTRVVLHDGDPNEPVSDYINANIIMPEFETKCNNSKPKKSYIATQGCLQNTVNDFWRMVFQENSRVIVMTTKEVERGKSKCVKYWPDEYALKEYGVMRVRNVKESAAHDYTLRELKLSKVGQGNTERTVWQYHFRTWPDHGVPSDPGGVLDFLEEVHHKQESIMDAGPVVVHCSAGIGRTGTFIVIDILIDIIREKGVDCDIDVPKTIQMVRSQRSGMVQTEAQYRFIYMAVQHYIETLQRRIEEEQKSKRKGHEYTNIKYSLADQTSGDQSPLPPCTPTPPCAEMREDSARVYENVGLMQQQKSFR
Assay: Measurement of SHP2 protein degradation in NCI-H358 cells (western blotting)
Format: cell-based
Set-up: endogenous in cells; host or cells: NCI-H358
Details: harvested after 24 hours
Outline: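 H358 cells in RPMI1640/25 mM HEPES/10% FBS, cultured 24 h, then exposed to compound at final 0.001, 0.01 and 0.1 μM for 24 h against a DMSO control. Lysates were normalised for protein by BCA and probed by western blot for SHP2, with GAPDH as loading control.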

An SHP2% degradation (0.01 μM) of 94.4% and an SHP2% degradation (0.1 μM) of 98.0% were found for `CC(=O)N[C@H](C(=O)N1C[C@H](O)C[C@H]1C(=O)NCc1ccc(-c2scnc2C)cc1OC1CCN(C(=O)C2CCN(c3nccc(Sc4cnc(N5CCC6(CC5)CO[C@@H](C)[C@H]6N)cn4)c3Cl)CC2)CC1)C(C)(C)C` [Example 77, (2S,4R)-1-((S)-2-acetamido-3,3-dimethylbutanoyl)-N-(2-((1-(1-(4-((5-((3S,4S)-4-amino-3-methyl-2-oxa-8-azaspiro[4.5]decan-8-yl)pyrazin-2-yl)thio)-3-chloropyridin-2-yl)piperidine-4-carbonyl)piperidin-4-yl)oxy)-4-(4-methylthiazol-5-yl)benzyl)-4-hydroxypyrrolidine-2-carboxamide] in this work.
An SHP2% degradation (0.01 μM) of 98.0% and an SHP2% degradation (0.1 μM) of 99.4% were found for `CC(=O)N[C@H](C(=O)N1C[C@H](O)C[C@H]1C(=O)NCc1ccc(-c2scnc2C)cc1OC1CCN(C(=O)C2CCN(c3nccc(Sc4cnc(N5CCC(C)(CN)CC5)c(CO)n4)c3Cl)CC2)CC1)C(C)(C)C` [Example 78, (2S,4R)-1-((S)-2-acetamido-3,3-dimethylbutanoyl)-N-(2-((1-(1-(4-((5-(4-(aminomethyl)-4-methylpiperidin-1-yl)-6-(hydroxymethyl)pyrazin-2-yl)thio)-3-chloropyridin-2-yl)piperidine-4-carbonyl)piperidin-4-yl)oxy)-4-(4-methylthiazol-5-yl)benzyl)-4-hydroxypyrrolidine-2-carboxamide] in this work.
An SHP2% degradation (0.01 μM) of 96.1% and an SHP2% degradation (0.1 μM) of 99.9% were found for `CC(=O)N[C@H](C(=O)N1C[C@H](O)C[C@H]1C(=O)NCc1ccc(-c2scnc2C)cc1OC1CCN(C(=O)C2CCN(c3nccc(Sc4cnc(N5CCC(C)(N)CC5)c(CO)n4)c3Cl)CC2)CC1)C(C)(C)C` [Example 79, (2S,4R)-1-((S)-2-acetamido-3,3-dimethylbutanoyl)-N-(2-((1-(1-(4-((5-(4-amino-4-methylpiperidin-1-yl)-6-(hydroxymethyl)pyrazin-2-yl)thio)-3-chloropyridin-2-yl)piperidine-4-carbonyl)piperidin-4-yl)oxy)-4-(4-methylthiazol-5-yl)benzyl)-4-hydroxypyrrolidine-2-carboxamide] in this work.
An SHP2% degradation (0.01 μM) of 99.6% and an SHP2% degradation (0.1 μM) of 99.5% were found for `CC(=O)N[C@H](C(=O)N1C[C@H](O)C[C@H]1C(=O)NCc1ccc(-c2scnc2C)cc1OC1CCN(C(=O)C2CCN(c3nccc(Sc4cnc(N5CCC6(CC5)CO[C@@H](C)[C@H]6N)c(CO)n4)c3Cl)CC2)CC1)C(C)(C)C` [Example 80, (2S,4R)-1-((S)-2-acetamido-3,3-dimethylbutanoyl)-N-(2-((1-(1-(4-((5-((3S,4S)-4-amino-3-methyl-2-oxa-8-azaspiro[4.5]decan-8-yl)-6-(hydroxymethyl)pyrazin-2-yl)thio)-3-chloropyridin-2-yl)piperidine-4-carbonyl)piperidin-4-yl)oxy)-4-(4-methylthiazol-5-yl)benzyl)-4-hydroxypyrrolidine-2-carboxamide] in this work.
An SHP2% degradation (0.01 μM) of 85.6% and an SHP2% degradation (0.1 μM) of 99.6% were found for `CC(=O)N[C@H](C(=O)N1C[C@H](O)C[C@H]1C(=O)NCc1ccc(-c2scnc2C)cc1OC1CCN(C(=O)C2CCN(c3nccc(Sc4nc(CO)c(N5CCC(C)(CN)CC5)nc4C)c3Cl)CC2)CC1)C(C)(C)C` [Example 81, (2S,4R)-1-((S)-2-acetamido-3,3-dimethylbutanoyl)-N-(2-((1-(1-(4-((5-(4-(aminomethyl)-4-methylpiperidin-1-yl)-6-(hydroxymethyl)-3-methylpyrazin-2-yl)thio)-3-chloropyridin-2-yl)piperidine-4-carbonyl)piperidin-4-yl)oxy)-4-(4-methylthiazol-5-yl)benzyl)-4-hydroxypyrrolidine-2-carboxamide] in this work.
An SHP2% degradation (0.01 μM) of 94.9% and an SHP2% degradation (0.1 μM) of 97.4% were found for `CC(=O)N[C@H](C(=O)N1C[C@H](O)C[C@H]1C(=O)NCc1ccc(-c2scnc2C)cc1OC1CCN(C(=O)C2CCN(c3cccc(Sc4cnc(N5CCC(C)(CN)CC5)cn4)c3Cl)CC2)CC1)C(C)(C)C` [Example 82, (2S,4R)-1-((S)-2-acetamido-3,3-dimethylbutanoyl)-N-(2-((1-(1-(3-((5-(4-(aminomethyl)-4-methylpiperidin-1-yl)pyrazin-2-yl)thio)-2-chlorophenyl)piperidine-4-carbonyl)piperidin-4-yl)oxy)-4-(4-methylthiazol-5-yl)benzyl)-4-hydroxypyrrolidine-2-carboxamide] in this work.
An SHP2% degradation (0.01 μM) of 97.8% and an SHP2% degradation (0.1 μM) of 99.7% were found for `CC(=O)N[C@H](C(=O)N1C[C@H](O)C[C@H]1C(=O)NCc1ccc(-c2scnc2C)cc1OC1CCN(C(=O)C2CCN(c3cccc(Sc4cnc(N5CCC(C)(CN)CC5)c(CO)n4)c3Cl)CC2)CC1)C(C)(C)C` [Example 83, (2S,4R)-1-((S)-2-acetamido-3,3-dimethylbutanoyl)-N-(2-((1-(1-(3-((5-(4-(aminomethyl)-4-methylpiperidin-1-yl)-6-(hydroxymethyl)pyrazin-2-yl)thio)-2-chlorophenyl)piperidine-4-carbonyl)piperidin-4-yl)oxy)-4-(4-methylthiazol-5-yl)benzyl)-4-hydroxypyrrolidine-2-carboxamide] in this work.
An SHP2% degradation (0.01 μM) of 92.4% and an SHP2% degradation (0.1 μM) of 99.9% were found for `CC(=O)N[C@H](C(=O)N1C[C@H](O)C[C@H]1C(=O)NCc1ccc(-c2scnc2C)cc1OC1CCN(C(=O)C2CCN(c3cccc(Sc4cnc(N5CCC(C)(N)CC5)c(CO)n4)c3Cl)CC2)CC1)C(C)(C)C` [Example 84, (2S,4R)-1-((S)-2-acetamido-3,3-dimethylbutanoyl)-N-(2-((1-(1-(3-((5-(4-amino-4-methylpiperidin-1-yl)-6-(hydroxymethyl)pyrazin-2-yl)thio)-2-chlorophenyl)piperidine-4-carbonyl)piperidin-4-yl)oxy)-4-(4-methylthiazol-5-yl)benzyl)-4-hydroxypyrrolidine-2-carboxamide] in this work.
An SHP2% degradation (0.01 μM) of 98.3% and an SHP2% degradation (0.1 μM) of 99.9% were found for `CC(=O)N[C@H](C(=O)N1C[C@H](O)C[C@H]1C(=O)NCc1ccc(-c2scnc2C)cc1OC1CCN(C(=O)C2CCN(c3cccc(Sc4cnc(N5CCC6(CC5)CO[C@@H](C)[C@H]6N)c(CO)n4)c3Cl)CC2)CC1)C(C)(C)C` [Example 85, (2S,4R)-1-((S)-2-acetamido-3,3-dimethylbutanoyl)-N-(2-((1-(1-(3-((5-((3S,4S)-4-amino-3-methyl-2-oxa-8-azaspiro[4.5]decan-8-yl)-6-(hydroxymethyl)pyrazin-2-yl)thio)-2-chlorophenyl)piperidine-4-carbonyl)piperidin-4-yl)oxy)-4-(4-methylthiazol-5-yl)benzyl)-4-hydroxypyrrolidine-2-carboxamide] in this work.
An SHP2% degradation (0.01 μM) of 97.0% and an SHP2% degradation (0.1 μM) of 99.9% were found for `Cc1ncsc1-c1ccc(CNC(=O)[C@@H]2C[C@@H](O)CN2C(=O)[C@@H](NC(=O)CC#N)C(C)(C)C)c(OC2CCN(C(=O)C3CCN(c4nccc(Sc5cnc(N6CCC7(CC6)CO[C@@H](C)[C@H]7N)c(CO)n5)c4Cl)CC3)CC2)c1` [Example 88, (2S,4R)—N-(2-((1-(1-(4-((5-((3S,4S)-4-amino-3-methyl-2-oxa-8-azaspiro[4.5]decan-8-yl)-6-(hydroxymethyl)pyrazin-2-yl)thio)-3-chloropyridin-2-yl)piperidine-4-carbonyl)piperidin-4-yl)oxy)-4-(4-methylthiazol-5-yl)benzyl)-1-((S)-2-(2-cyanoacetamido)-3,3-dimethylbutanoyl)-4-hydroxypyrrolidine-2-carboxamide] in this work.
An SHP2% degradation (0.01 μM) of 98.8% and an SHP2% degradation (0.1 μM) of 99.9% were found for `Cc1ncsc1-c1ccc(CNC(=O)[C@@H]2C[C@@H](O)CN2C(=O)[C@@H](NC(=O)CO)C(C)(C)C)c(OC2CCN(C(=O)C3CCN(c4nccc(Sc5cnc(N6CCC7(CC6)CO[C@@H](C)[C@H]7N)c(CO)n5)c4Cl)CC3)CC2)c1` [Example 89, (2S,4R)—N-(2-((1-(1-(4-((5-((3S,4S)-4-amino-3-methyl-2-oxa-8-azaspiro[4.5]decan-8-yl)-6-(hydroxymethyl)pyrazin-2-yl)thio)-3-chloropyridin-2-yl)piperidine-4-carbonyl)piperidin-4-yl)oxy)-4-(4-methylthiazol-5-yl)benzyl)-4-hydroxy-1-((S)-2-(2-hydroxyacetamido)-3,3-dimethylbutanoyl)pyrrolidine-2-carboxamide] in this work.
An SHP2% degradation (0.01 μM) of 70.5% and an SHP2% degradation (0.1 μM) of 99.2% were found for `CC(=O)N[C@H](C(=O)N1C[C@H](O)C[C@H]1C(=O)NCc1ccc(-c2scnc2C)cc1OC1CCN(C(=O)C2CCN(c3nccc(Sc4cnc(N5CCC(C)(CN)CC5)cn4)c3Cl)CC2)CC1)C(C)C` [Example 90, (2S,4R)-1-(acetyl-L-valyl)-N-(2-((1-(1-(4-((5-(4-(aminomethyl)-4-methylpiperidin-1-yl)pyrazin-2-yl)thio)-3-chloropyridin-2-yl)piperidine-4-carbonyl)piperidin-4-yl)oxy)-4-(4-methylthiazol-5-yl)benzyl)-4-hydroxypyrrolidine-2-carboxamide] in this work.
